Measurements published in the supplement of paper PMC9912026.

System: A375_NRAS_Q61K_DOXind
Experiment: pERK immunofluorescence relative to uninduced (no doxycycline), no-drug control; higher = more ERK phosphorylation (less pathway inhibition)
Settings: drug treatment time 24 h, doxycycline pre-induction time 24 h, vemurafenib background 0 µM
Protocol: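 pERK was measured by immunofluorescence with FLAG-negative cells excluded. Averages of 2 technical replicates.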

CCCS(=O)(=O)Nc1ccc(F)c(C(=O)c2c[nH]c3ncc(-c4ccc(Cl)cc4)cc23)c1F [Vemurafenib] + O=C(c1ccc(F)c(F)c1Nc1ccc(I)cc1F)N1CC(O)([C@@H]2CCCCN2)C1 [Cobimetinib]
pERK immunofluorescence
Settings | drug B concentration 0 µM | drug B concentration 0.0001 µM | drug B concentration 0.0003162 µM | drug B concentration 0.001 µM | drug B concentration 0.00316228 µM | drug B concentration 0.01 µM | drug B concentration 0.0316228 µM | drug B concentration 0.1 µM | drug B concentration 0.316228 µM | drug B concentration 1 µM
drug A concentration 0 µM, doxycycline 0 ng/mL | – | 0.771 | 0.877 | 0.692 | 0.269 | 0.0826 | 0.0415 | 0.0295 | 0.0213 | 0.0214
drug A concentration 0 µM, doxycycline 1000 ng/mL | – | 1.26 | 1.36 | 1.23 | 1.11 | 1.03 | 0.769 | 0.29 | 0.0675 | 0.0264
drug A concentration 0.000316 µM, doxycycline 0 ng/mL | 0.894 | 0.847 | 0.89 | 0.663 | 0.253 | 0.078 | 0.0417 | 0.0283 | 0.023 | 0.0216
drug A concentration 0.000316 µM, doxycycline 1000 ng/mL | 1.23 | 1.24 | 1.3 | 1.22 | 1.11 | 1.06 | 0.763 | 0.322 | 0.073 | 0.0271
drug A concentration 0.001 µM, doxycycline 0 ng/mL | 0.854 | 0.807 | 0.827 | 0.652 | 0.277 | 0.0707 | 0.0373 | 0.0262 | 0.0201 | 0.0201
drug A concentration 0.001 µM, doxycycline 1000 ng/mL | 1.15 | 1.21 | 1.26 | 1.29 | 1.15 | 1.08 | 0.761 | 0.326 | 0.0778 | 0.0269
drug A concentration 0.00316 µM, doxycycline 0 ng/mL | 0.761 | 0.816 | 0.887 | 0.555 | 0.229 | 0.0664 | 0.0382 | 0.0255 | 0.0206 | 0.0196
drug A concentration 0.00316 µM, doxycycline 1000 ng/mL | 1.12 | 1.17 | 1.31 | 1.25 | 1.13 | 1.01 | 0.763 | 0.311 | 0.0715 | 0.0264
drug A concentration 0.01 µM, doxycycline 0 ng/mL | 0.697 | 0.719 | 0.752 | 0.525 | 0.207 | 0.0636 | 0.0366 | 0.0258 | 0.0201 | 0.0203
drug A concentration 0.01 µM, doxycycline 1000 ng/mL | 1.16 | 1.21 | 1.28 | 1.31 | 1.21 | 1.02 | 0.741 | 0.32 | 0.0751 | 0.0284
drug A concentration 0.0316 µM, doxycycline 0 ng/mL | 0.485 | 0.57 | 0.578 | 0.357 | 0.142 | 0.0532 | 0.0338 | 0.0248 | 0.0205 | 0.0197
drug A concentration 0.0316 µM, doxycycline 1000 ng/mL | 1.08 | 1.11 | 1.22 | 1.27 | 1.05 | 0.964 | 0.683 | 0.254 | 0.0677 | 0.0258
drug A concentration 0.1 µM, doxycycline 0 ng/mL | 0.316 | 0.286 | 0.274 | 0.161 | 0.0758 | 0.0428 | 0.0306 | 0.0226 | 0.0207 | 0.0198
drug A concentration 0.1 µM, doxycycline 1000 ng/mL | 1.2 | 1.18 | 1.31 | 1.21 | 1.12 | 1.05 | 0.766 | 0.294 | 0.0731 | 0.0266
drug A concentration 0.316228 µM, doxycycline 0 ng/mL | 0.107 | 0.0916 | 0.1 | 0.0715 | 0.0458 | 0.0352 | 0.0271 | 0.0216 | 0.0197 | 0.019
drug A concentration 0.316228 µM, doxycycline 1000 ng/mL | 1.17 | 1.21 | 1.26 | 1.25 | 1.15 | 1.08 | 0.736 | 0.279 | 0.069 | 0.0251
drug A concentration 1 µM, doxycycline 0 ng/mL | 0.0542 | 0.0554 | 0.0566 | 0.0507 | 0.0389 | 0.0323 | 0.0252 | 0.0202 | 0.019 | 0.0186
drug A concentration 1 µM, doxycycline 1000 ng/mL | 1.12 | 1.21 | 1.32 | 1.26 | 1.15 | 1.06 | 0.675 | 0.212 | 0.0608 | 0.0248
drug A concentration 3.16 µM, doxycycline 0 ng/mL | 0.0469 | 0.0457 | 0.0485 | 0.044 | 0.038 | 0.0293 | 0.0233 | 0.02 | 0.0191 | 0.0188
drug A concentration 3.16 µM, doxycycline 1000 ng/mL | 1.07 | 1.14 | 1.22 | 1.27 | 1.12 | 0.941 | 0.478 | 0.129 | 0.0468 | 0.0219
drug A concentration 10 µM, doxycycline 0 ng/mL | 0.0377 | 0.0388 | 0.0357 | 0.0351 | 0.0307 | 0.0237 | 0.0219 | 0.0199 | 0.019 | 0.0193
drug A concentration 10 µM, doxycycline 1000 ng/mL | 0.905 | 1.01 | 1.04 | 1.02 | 0.868 | 0.553 | 0.145 | 0.0465 | 0.0237 | 0.0194
